The numbers were not newly measured in PMC3238097 (Journal of the American Chemical Society, 2011), which cites them from elsewhere.

Consider naphthalene-diphenylalanine-glucosamine, for which the hydrogel formation entry is on record as “fails to form hydrogel properly”.
